Reference: patent US11767310B2, “Nicotinamide RIPK1 inhibitors” (AbbVie Inc., priority 2021, dated 2023)
Where two headings read alike, the source gives them in different places.

Assays:
Assay in all cases: Kinase binding screen
Conditions in all cases: read-out: Percent Control at 100 nM Compound Concentration
[1] = biological target: AURKC (Homo sapiens (Human), UniProt Q9UQB9)
[2] = biological target: BMPR2 (Homo sapiens (Human), UniProt Q13873)
[3] = biological target: CAMK1B (Homo sapiens (Human), UniProt Q6P2M8)
[4] = biological target: CLK1 (Homo sapiens (Human), UniProt P49759)
[5] = biological target: CLK2 (Homo sapiens (Human), UniProt P49760)
[6] = biological target: CSNK1D (Homo sapiens (Human), UniProt P48730)
[7] = biological target: DRAK2 (Homo sapiens (Human), UniProt O94768)
[8] = biological target: EPHA6 (Homo sapiens (Human), UniProt Q9UF33)
[9] = biological target: EPHB1 (Homo sapiens (Human), UniProt P54762)
[10] = biological target: GSK3B (Homo sapiens (Human), UniProt P49841)
[11] = biological target: ITK (Homo sapiens (Human), UniProt Q08881)
[12] = biological target: LCK (Homo sapiens (Human), UniProt P06239)
[13] = biological target: MAP3K4 (Homo sapiens (Human), UniProt Q9Y6R4)
[14] = biological target: MARK2 (Homo sapiens (Human), UniProt Q7KZI7)
[15] = biological target: MET(M1250T) (Homo sapiens (Human), UniProt P08581, M1250T)
[16] = biological target: MRCKA (Homo sapiens (Human), UniProt Q5VT25)
[17] = biological target: OSR1 (Homo sapiens (Human), UniProt O95747)
[18] = biological target: PAK7 (Homo sapiens (Human), UniProt Q9P286)
[19] = biological target: PFTK1 (Homo sapiens (Human), UniProt O94921)
[20] = biological target: PIM3 (Homo sapiens (Human), UniProt Q86V86)
[21] = biological target: PKN1 (Homo sapiens (Human), UniProt Q16512)
[22] = biological target: PKNB(M.tuberculosis) (Mycobacterium tuberculosis (strain ATCC 25618 / H37Rv), UniProt P9WI81)
[23] = biological target: PRKCD (Homo sapiens (Human), UniProt Q05655)
[24] = biological target: PRKD1 (Homo sapiens (Human), UniProt Q15139)
[25] = biological target: ROS1 (Homo sapiens (Human), UniProt P08922)
[26] = biological target: SRMS (Homo sapiens (Human), UniProt Q9H3Y6)
[27] = biological target: TIE2 (Homo sapiens (Human), UniProt Q02763)
[28] = biological target: TSSK3 (Homo sapiens (Human), UniProt Q96PN8)
[29] = biological target: TYK2(JH2domain-pseudokinase) (Homo sapiens (Human), UniProt P29597)

Sequence of BMPR2 (Q13873 27-1038): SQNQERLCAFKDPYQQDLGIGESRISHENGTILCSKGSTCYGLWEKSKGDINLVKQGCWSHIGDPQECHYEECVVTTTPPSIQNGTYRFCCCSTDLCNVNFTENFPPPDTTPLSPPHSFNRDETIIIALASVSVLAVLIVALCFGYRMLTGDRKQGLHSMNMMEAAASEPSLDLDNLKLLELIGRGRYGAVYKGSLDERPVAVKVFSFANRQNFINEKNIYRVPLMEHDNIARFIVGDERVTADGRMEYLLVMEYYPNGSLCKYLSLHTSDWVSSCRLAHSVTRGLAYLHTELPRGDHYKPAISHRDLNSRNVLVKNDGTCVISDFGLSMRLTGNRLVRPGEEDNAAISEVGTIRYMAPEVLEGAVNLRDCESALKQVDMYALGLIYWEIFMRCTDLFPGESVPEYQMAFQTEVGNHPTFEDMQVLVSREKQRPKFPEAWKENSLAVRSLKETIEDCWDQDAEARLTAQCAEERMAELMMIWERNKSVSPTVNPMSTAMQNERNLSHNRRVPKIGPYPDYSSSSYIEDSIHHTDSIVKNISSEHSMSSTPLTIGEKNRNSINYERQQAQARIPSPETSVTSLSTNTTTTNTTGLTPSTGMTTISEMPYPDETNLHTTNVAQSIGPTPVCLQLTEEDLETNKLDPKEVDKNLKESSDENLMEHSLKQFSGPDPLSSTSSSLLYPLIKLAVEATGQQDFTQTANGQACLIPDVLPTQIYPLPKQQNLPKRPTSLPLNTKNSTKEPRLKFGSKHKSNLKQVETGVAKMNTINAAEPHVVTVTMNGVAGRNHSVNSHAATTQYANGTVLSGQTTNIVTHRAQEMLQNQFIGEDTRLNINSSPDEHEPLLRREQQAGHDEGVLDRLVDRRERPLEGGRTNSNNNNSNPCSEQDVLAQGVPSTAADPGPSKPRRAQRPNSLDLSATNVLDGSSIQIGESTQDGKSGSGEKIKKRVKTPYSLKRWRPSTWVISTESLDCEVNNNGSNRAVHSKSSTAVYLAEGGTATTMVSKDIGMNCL
Sequence of PAK7 (Q9P286 whole entry): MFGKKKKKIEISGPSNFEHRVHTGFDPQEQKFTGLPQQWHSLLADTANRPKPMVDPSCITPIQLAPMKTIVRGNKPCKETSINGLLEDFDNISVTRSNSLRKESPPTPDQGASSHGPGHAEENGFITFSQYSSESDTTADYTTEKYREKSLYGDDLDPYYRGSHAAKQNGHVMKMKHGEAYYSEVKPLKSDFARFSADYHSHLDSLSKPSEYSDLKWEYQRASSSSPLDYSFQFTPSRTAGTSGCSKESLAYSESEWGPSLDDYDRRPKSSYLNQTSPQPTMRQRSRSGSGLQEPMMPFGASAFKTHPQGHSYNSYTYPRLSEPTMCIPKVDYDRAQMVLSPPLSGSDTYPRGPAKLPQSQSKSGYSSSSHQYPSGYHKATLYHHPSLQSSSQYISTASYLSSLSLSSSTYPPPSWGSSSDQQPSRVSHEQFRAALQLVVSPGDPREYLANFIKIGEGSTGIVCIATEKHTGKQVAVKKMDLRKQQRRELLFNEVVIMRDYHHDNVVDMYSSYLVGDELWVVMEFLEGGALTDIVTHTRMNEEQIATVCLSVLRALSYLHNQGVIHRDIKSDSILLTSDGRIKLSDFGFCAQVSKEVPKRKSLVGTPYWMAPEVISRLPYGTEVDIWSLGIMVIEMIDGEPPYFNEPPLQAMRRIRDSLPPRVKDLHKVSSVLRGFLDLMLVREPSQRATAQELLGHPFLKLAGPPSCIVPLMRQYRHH
Sequence of TSSK3 (Q96PN8 whole entry): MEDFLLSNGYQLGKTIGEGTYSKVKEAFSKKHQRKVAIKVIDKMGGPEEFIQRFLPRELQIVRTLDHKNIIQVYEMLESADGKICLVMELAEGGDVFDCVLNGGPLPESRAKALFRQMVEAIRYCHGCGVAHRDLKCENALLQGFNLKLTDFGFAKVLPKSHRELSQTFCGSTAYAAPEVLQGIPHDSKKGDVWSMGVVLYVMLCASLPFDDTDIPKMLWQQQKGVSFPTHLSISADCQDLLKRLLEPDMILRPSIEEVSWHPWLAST
Sequence of MET(M1250T) (P08581 25-1390 M1250T): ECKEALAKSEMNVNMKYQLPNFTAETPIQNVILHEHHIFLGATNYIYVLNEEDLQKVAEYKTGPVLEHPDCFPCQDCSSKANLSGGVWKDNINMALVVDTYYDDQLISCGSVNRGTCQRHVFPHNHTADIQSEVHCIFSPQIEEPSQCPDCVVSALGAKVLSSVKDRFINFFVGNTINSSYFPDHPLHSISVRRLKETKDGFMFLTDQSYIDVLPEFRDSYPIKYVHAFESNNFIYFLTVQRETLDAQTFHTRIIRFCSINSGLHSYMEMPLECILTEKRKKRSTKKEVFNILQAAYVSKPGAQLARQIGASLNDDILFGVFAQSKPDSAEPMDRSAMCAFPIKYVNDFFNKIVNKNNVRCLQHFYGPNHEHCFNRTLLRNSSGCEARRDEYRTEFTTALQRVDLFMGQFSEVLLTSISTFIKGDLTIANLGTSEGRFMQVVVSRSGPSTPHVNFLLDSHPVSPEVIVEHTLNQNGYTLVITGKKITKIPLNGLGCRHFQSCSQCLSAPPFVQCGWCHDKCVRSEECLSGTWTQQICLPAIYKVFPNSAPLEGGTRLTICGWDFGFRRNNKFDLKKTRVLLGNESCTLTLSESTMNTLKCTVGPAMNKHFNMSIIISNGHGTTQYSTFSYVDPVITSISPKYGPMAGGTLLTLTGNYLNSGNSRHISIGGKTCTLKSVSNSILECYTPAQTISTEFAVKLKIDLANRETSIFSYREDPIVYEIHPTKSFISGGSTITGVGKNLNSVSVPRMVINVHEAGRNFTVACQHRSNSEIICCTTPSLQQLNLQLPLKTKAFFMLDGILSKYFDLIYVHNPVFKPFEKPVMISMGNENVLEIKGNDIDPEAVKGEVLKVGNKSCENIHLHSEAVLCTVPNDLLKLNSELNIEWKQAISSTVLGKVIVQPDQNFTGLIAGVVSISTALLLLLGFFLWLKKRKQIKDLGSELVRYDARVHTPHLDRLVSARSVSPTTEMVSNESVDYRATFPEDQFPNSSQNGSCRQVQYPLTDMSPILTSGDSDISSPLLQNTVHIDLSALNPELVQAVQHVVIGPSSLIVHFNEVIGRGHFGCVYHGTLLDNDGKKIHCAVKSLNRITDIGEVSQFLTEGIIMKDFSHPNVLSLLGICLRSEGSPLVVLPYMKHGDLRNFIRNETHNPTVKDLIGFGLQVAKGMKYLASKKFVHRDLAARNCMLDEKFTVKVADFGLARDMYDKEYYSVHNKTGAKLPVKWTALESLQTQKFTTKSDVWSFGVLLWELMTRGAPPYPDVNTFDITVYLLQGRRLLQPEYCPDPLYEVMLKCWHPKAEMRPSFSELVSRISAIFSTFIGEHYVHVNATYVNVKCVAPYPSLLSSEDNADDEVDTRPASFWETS
Sequence of MARK2 (Q7KZI7 whole entry): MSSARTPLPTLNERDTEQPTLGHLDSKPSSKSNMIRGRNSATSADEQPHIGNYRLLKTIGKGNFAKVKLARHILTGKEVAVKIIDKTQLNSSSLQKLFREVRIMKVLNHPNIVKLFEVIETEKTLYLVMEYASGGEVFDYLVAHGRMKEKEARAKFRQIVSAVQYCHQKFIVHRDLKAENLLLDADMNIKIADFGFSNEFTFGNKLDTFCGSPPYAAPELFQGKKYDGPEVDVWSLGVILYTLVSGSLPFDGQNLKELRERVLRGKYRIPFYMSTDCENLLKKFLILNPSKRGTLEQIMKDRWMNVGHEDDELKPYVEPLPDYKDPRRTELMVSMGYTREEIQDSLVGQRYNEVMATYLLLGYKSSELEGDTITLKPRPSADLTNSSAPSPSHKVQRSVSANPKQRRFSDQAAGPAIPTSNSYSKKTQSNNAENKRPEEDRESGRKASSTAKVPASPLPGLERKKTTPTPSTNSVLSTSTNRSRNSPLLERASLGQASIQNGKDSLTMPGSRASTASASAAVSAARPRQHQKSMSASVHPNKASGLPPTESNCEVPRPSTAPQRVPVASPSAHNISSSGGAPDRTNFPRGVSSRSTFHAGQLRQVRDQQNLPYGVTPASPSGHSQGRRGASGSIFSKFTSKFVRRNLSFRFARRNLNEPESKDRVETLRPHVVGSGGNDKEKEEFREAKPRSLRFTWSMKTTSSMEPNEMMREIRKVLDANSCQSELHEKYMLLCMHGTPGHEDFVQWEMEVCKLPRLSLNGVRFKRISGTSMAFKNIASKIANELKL
Sequence of LCK (P06239 whole entry): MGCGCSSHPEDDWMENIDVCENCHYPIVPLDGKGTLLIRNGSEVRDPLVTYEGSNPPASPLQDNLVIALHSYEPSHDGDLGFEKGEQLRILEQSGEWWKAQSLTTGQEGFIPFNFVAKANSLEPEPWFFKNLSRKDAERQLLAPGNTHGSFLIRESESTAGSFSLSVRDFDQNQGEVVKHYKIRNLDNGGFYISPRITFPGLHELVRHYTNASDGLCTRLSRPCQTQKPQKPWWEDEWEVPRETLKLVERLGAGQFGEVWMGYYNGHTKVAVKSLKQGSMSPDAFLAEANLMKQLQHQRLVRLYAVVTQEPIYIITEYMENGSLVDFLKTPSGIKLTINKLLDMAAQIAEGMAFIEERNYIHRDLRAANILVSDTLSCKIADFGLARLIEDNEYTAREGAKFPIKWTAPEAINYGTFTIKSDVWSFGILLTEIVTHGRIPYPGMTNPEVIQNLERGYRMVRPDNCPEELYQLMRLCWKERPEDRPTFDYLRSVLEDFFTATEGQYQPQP
Sequence of CSNK1D (P48730 whole entry): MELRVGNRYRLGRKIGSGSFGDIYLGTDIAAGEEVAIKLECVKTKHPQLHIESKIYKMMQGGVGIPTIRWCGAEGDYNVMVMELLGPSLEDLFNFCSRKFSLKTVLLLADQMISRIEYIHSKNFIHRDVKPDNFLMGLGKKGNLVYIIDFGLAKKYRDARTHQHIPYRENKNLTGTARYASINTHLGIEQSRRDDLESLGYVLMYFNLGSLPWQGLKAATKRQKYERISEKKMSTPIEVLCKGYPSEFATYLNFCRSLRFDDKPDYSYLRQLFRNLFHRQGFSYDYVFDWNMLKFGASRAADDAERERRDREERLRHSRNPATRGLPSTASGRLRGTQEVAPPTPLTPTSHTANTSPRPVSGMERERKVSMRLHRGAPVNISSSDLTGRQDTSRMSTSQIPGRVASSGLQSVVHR

Question: `CN(C[C@H](Cc1ccccc1)OP(=O)(O)O)C(=O)c1cncc(C#Cc2cnn(C(F)F)c2)c1` [Example 19, (S)-1-(5-((1-(difluoromethyl)-1H-pyrazol-4-yl)ethynyl)-N-methylnicotinamido)-3-phenylpropan-2-yl dihydrogen phosphate] was tested. Which remaining activity at 0.1 µM [1] did it give?
Answer: 100%

Question: And the remaining activity at 0.1 µM [2]?
Answer: 89%

Question: And the remaining activity at 0.1 µM [3]?
Answer: 83%

Question: What about the remaining activity at 0.1 µM [4] of the same molecule?
Answer: 100%

Question: What about the remaining activity at 0.1 µM [5] of the same molecule?
Answer: 100%

Question: And the remaining activity at 0.1 µM [6]?
Answer: 100%

Question: And the remaining activity at 0.1 µM [7]?
Answer: 100%

Question: And the remaining activity at 0.1 µM [8]?
Answer: 100%

Question: And the remaining activity at 0.1 µM [9]?
Answer: 100%

Question: What about the remaining activity at 0.1 µM [10] of the same molecule?
Answer: 98%

Question: And the remaining activity at 0.1 µM [11]?
Answer: 100%

Question: And the remaining activity at 0.1 µM [12]?
Answer: 95%

Question: What about the remaining activity at 0.1 µM [13] of the same molecule?
Answer: 100%

Question: What about the remaining activity at 0.1 µM [14] of the same molecule?
Answer: 100%

Question: And the remaining activity at 0.1 µM [15]?
Answer: 100%

Question: And the remaining activity at 0.1 µM [16]?
Answer: 100%

Question: And the remaining activity at 0.1 µM [17]?
Answer: 89%

Question: What about the remaining activity at 0.1 µM [18] of the same molecule?
Answer: 100%

Question: What about the remaining activity at 0.1 µM [19] of the same molecule?
Answer: 100%

Question: What about the remaining activity at 0.1 µM [20] of the same molecule?
Answer: 100%

Question: And the remaining activity at 0.1 µM [21]?
Answer: 100%

Question: And the remaining activity at 0.1 µM [22]?
Answer: 100%

Question: What about the remaining activity at 0.1 µM [23] of the same molecule?
Answer: 94%

Question: And the remaining activity at 0.1 µM [24]?
Answer: 100%

Question: What about the remaining activity at 0.1 µM [25] of the same molecule?
Answer: 91%

Question: And the remaining activity at 0.1 µM [26]?
Answer: 96%

Question: What about the remaining activity at 0.1 µM [27] of the same molecule?
Answer: 88%

Question: And the remaining activity at 0.1 µM [28]?
Answer: 100%

Question: What about the remaining activity at 0.1 µM [29] of the same molecule?
Answer: 90%

Question: Which results are given for `CN(C[C@@H](O)Cc1ccccc1)C(=O)c1cncc(C#Cc2cnn(C(F)F)c2)c1` [Example 2, (S)-5-((1-(difluoromethyl)-1H-pyrazol-4-yl)ethynyl)-N-(2-hydroxy-3-phenylpropyl)-N-methylnicotinamide]?
Answer: remaining activity at 0.1 µM ([1]; AURKC): 100%; remaining activity at 0.1 µM ([2]; BMPR2): 100%; remaining activity at 0.1 µM ([3]; CAMK1B): 82%; remaining activity at 0.1 µM ([4]; CLK1): 100%; remaining activity at 0.1 µM ([5]; CLK2): 95%; remaining activity at 0.1 µM ([6]; CSNK1D): 100%; remaining activity at 0.1 µM ([7]; DRAK2): 100%; remaining activity at 0.1 µM ([8]; EPHA6): 100%; remaining activity at 0.1 µM ([9]; EPHB1): 100%; remaining activity at 0.1 µM ([10]; GSK3B): 100%; remaining activity at 0.1 µM ([11]; ITK): 99%; remaining activity at 0.1 µM ([12]; LCK): 100%; remaining activity at 0.1 µM ([13]; MAP3K4): 100%; remaining activity at 0.1 µM ([14]; MARK2): 96%; remaining activity at 0.1 µM ([15]; MET(M1250T)): 100%; remaining activity at 0.1 µM ([16]; MRCKA): 100%; remaining activity at 0.1 µM ([17]; OSR1): 88%; remaining activity at 0.1 µM ([18]; PAK7): 100%; remaining activity at 0.1 µM ([19]; PFTK1): 100%; remaining activity at 0.1 µM ([20]; PIM3): 100%; remaining activity at 0.1 µM ([21]; PKN1): 91%; remaining activity at 0.1 µM [22]: 100%; remaining activity at 0.1 µM ([23]; PRKCD): 98%; remaining activity at 0.1 µM ([24]; PRKD1): 100%; remaining activity at 0.1 µM ([25]; ROS1): 100%; remaining activity at 0.1 µM ([26]; SRMS): 100%; remaining activity at 0.1 µM ([27]; TIE2): 100%; remaining activity at 0.1 µM ([28]; TSSK3): 82%; remaining activity at 0.1 µM ([29]; TYK2(JH2domain-pseudokinase)): 100%
